Here are results for 1 substance from US9763992B2, “Treatment of noise induced hearing loss” (Father Flanagan's Boys' Home, priority 2014, dated 2017).

Test [1] deals with interferon-gamma. The test can be described thus: qRT-PCR cytokine expression after noise exposure: interferon-gamma. It is filed as in vivo, mouse. The note with it: GA-treated mice, 10 days following noise exposure (Group 1), spleen tissues, FIG. 6. The procedure:
(§1) To determine if GA affects cytokine expression, groups of mice received GA as described above, and cytokine expression was evaluated via RT-PCR. […]
(Real-time PCR tracks product formation cycle by cycle.)

The test system of test [2] is IL-2. As to the kind of experiment: qRT-PCR cytokine expression after noise exposure: IL-2. The format is in vivo, mouse. As to conditions: GA-treated mice, 10 days following noise exposure (Group 1), FIG. 7. The procedure: (§2) To determine if GA affects cytokine expression, groups of mice received GA as described above, and cytokine expression was evaluated via RT-PCR.
(§3) Using RT-PCR, the effects of GA on cytokine expression in the cochlea, specifically those mediators associated with pro- or anti-inflammatory activity, was established.

Test [3] concerns noise-induced hearing loss (NIHL) in CBA mice. The test can be described thus: ABR threshold recovery after traumatizing noise exposure in mice. It is filed as in vivo, mouse. How it is done:
(§4) To determine if the glatiramer acetate (GA) prevents or reduces hearing loss in mice following exposure to traumatizing noise, following determination of baseline acoustic thresholds (i.e., pre-noise exposure thresholds), hearing sensitivity and input-output relationships was assessed during the post-noise exposure period using auditory evoked brainstem responses (ABRs) and distortion product otoacoustic emissions (DPOAEs); DPOAEs were studied using the same protocol as in ABR-based studies to separate findings associated with neural and sensory outcomes. Responses to tone burst stimuli was acquired immediately following noise exposure, daily during the early post-exposure period, and intermittently thereafter for six (6) months to generally assess the long-term outcome of exposure to traumatizing noise in CBA mice. Morphological correlates of final treatment outcomes, including sensory and support cell (cytocochleograms), synapses between hair cells and spiral ganglion dendrites, and SGN survival estimates, was made at the end of the acute phase (2 months following noise exposure) or at 6 months to assess long-term outcomes.
The traumatizing noise used in CBA mouse studies was an octave band of white noise centered on 11.3 kHz and was presented at 109 dB SPL for 30 min. Because of well-documented differences in the abilities of males and females to mount inflammatory responses, both males and females were included in this investigation.
In mice, GA (100 mg/kg) was administered following two treatment strategies. In Group 1, GA was administered in sequential doses one month and one week prior to noise exposure (the “protection” approach), with supplementary doses on a daily basis for the first 4 days following noise exposure and again on the 7th and 14th post-exposure days in mice, to determine if GA can prevent permanent hearing loss associated with traumatizing noise. In Group 2, GA was administered only during the post-noise exposure period in an effort to determine if GA can rescue hearing following acute trauma. In a subset of animals, GA was administered prior to noise exposure and then daily for the first ten post-exposure days. Complete Freund's adjuvant will be used to deliver the first dose of the agent to determine if GA actions might be potentiated (boosted) when delivered in an emulsified form in a separate group of mice.
An example of findings associated with this experimental design is shown in FIG. 2, in which families of ABR threshold-frequency curves (audiograms) generated by tracking sensitivity according to the “protection” protocol reviewed above in a GA-treated animal (right panel) and a saline-treated control (left panel) that were exposed to noise simultaneously are shown.
With this example, to determine if treatment with GA alone reduces the amount of temporary and permanent hearing loss and/or accelerates the rate of recovery from temporary threshold shift (TTS), groups of mice received GA or saline and were evaluated as described above.

For test [4], the system named is TNF-alpha. As to the kind of experiment: qRT-PCR cytokine expression after noise exposure: TNF-alpha. It is filed as in vivo, mouse. The note with it: GA-treated mice, 10 days following noise exposure (Group 1), FIG. 7. The procedure: as §2, §3
Test [5] concerns noise-induced hearing loss (NIHL) in CBA mice. As to the kind of experiment: DPOAE input-output curves (outer hair cell function) after noise exposure in mice. It is filed as in vivo. As to conditions: one GA-treated mouse relative to saline-treated; 14 days following noise exposure; f2=11.3 kHz; FIG. 4. How it is done: as §4
The traumatizing noise used in CBA mouse studies was an octave band of white noise centered on 11.3 kHz and was presented at 109 dB SPL for 30 min. […]

For test [6], the system named is IL-4. The test can be described thus: qRT-PCR cytokine expression after noise exposure: IL-4. The format is in vivo, mouse. As to conditions: GA-treated mice, 10 days following noise exposure (Group 1), spleen tissues, FIG. 6. The procedure:
as §1

For test [7], the system named is IL-17. The test can be described thus: qRT-PCR cytokine expression after noise exposure: IL-17. The format is in vivo, mouse. As to conditions: GA-treated mice, 10 days following noise exposure (Group 1), FIG. 7. The procedure: as §2, §3
Test [8] has as its system TGF-β. As to the kind of experiment: qRT-PCR cytokine expression after noise exposure: TGF-β. The format is in vivo, mouse. The note with it: GA-treated mice, spleen tissues. The procedure: as §2, §3

As to Glatiramer acetate [GA], the “Interferon-gamma expression, reduction re controls” value in test [1] was 66%. Also, the IL-2 expression entry in test [2] was “down-regulated”. Besides, in test [3] (GA cohort, control animals approximately 17 dB, FIG. 5), the “Total extent of recovery following exposure (cohort)” value is given as about 25 dB. In addition, the “Threshold recovery during the first 10 days following exposure relative to saline-treated controls and GA-treated mice below criterion” value in test [3] (GA-treated mice with at least 3.4-fold IL-4 increase, stimulus frequencies within the noise band (8.0, 11.3 and 16.0 kHz), FIG. 9) is “greater”. Further, in test [3] (GA-treated mice with at least 3.4-fold increase in IL-4 expression (criterion), FIG. 8), the “Overall threshold recovery from NIHL relative to saline-treated controls and GA-treated mice below criterion” value was “significantly greater”. Also, the “Recovery with GA treatment alone compared with saline controls” value in test [3] (P<0.05) is given as “significantly enhanced”. In test [3] (one GA-treated mouse, protection protocol, GA 100 mg/kg, frequencies at and immediately above noise centre frequency 11.3 kHz, first 14 days after exposure, FIG. 2, 3), the “Recovery from NIHL (ABR threshold-frequency curves)” value is “nearly complete”. The TNF-α expression result in test [4] is listed as “down-regulated”. Besides, the “Recovery of outer hair cell (OHC) function, DPOAE input-output curves” value in test [5] is given as “nearly complete recovery”. In addition, in test [6], the “Expression of anti-inflammatory cytokine IL-4, fold greater than controls” value amounted to 2.6 fold. Further, the IL-17 expression result in test [7] was “down-regulated”. The TGF-β expression entry in test [8] is “up-regulation”.
